Assays:
salivary alpha-amylase = assay: Salivary alpha-amylase before vs after timed ten minute mathematical/word stress test, fragrance inhaled; assay type: in vivo, human; conditions: for Salivary Amylase Data (change before vs after stress test): Table 6, about 10-15 panelists, DPG control +60.7%; for Percent change in salivary alpha-amylase: solvent only control 66.8%
Protocol: Fourteen female panelists age 30-45 participated in this study. Stress was induced using a timed ten minute mathematical/word test in a small group competition setting. Fragrance was introduced at intervals during the stress test. Saliva was collected before (Pre) and immediately after (Post) the stress test. Saliva samples were assayed for salivary alpha-amylase using a commercially available kinetic reaction assay kit and for salivary cortisol using a highly sensitive enzyme immunoassay kit (Salimetrics®, State College, Pa.). […]
(§1) Saliva was collected before (Pre) and immediately after (Post) the stress test. Saliva samples were assayed for salivary alpha-amylase using a commercially available kinetic reaction assay kit and for salivary cortisol using a highly sensitive enzyme immunoassay kit (Salimetrics®, State College, Pa.).

salivary cortisol = assay: Salivary cortisol before vs after timed ten minute mathematical/word stress test, fragrance inhaled; assay type: in vivo, human; conditions: for Cortisol Data (change before vs after stress test): Table 6, about 10-15 panelists, DPG control −10.9%
Text: Salivary cortisol is widely used as a biomarker for stress. The purpose of this study was to investigate the influence of individual fragrance compounds, particularly musk compounds, on a subject's cortisol levels before and after exposure to a stressor. The subject sniffed each musk compound, then was exposed to a stressor. The goal was to identify one or more specific musk compounds which caused the least amount of change in cortisol levels or decreased a subject's cortisol levels compared to before administration, thereby reducing or inhibiting a response to stress stimuli. […]
Stress was induced in a number of panelists (about 10-15) for each tested compound using a timed ten minute mathematical/word test in a small group competition setting. The test compound was introduced at intervals during the stress test.
Saliva was collected before and immediately after the stress test. Saliva samples were assayed for salivary cortisol levels and salivary alpha-amylase activity using a commercially available kinetic reaction assay kit (Salimetrics®, State College, Pa.). […]
as §1

[1] = Chassis-air partition coefficient of accord components; assay type: physicochemical
[2] = as above; assay type: physicochemical; conditions: BC-162 shampoo chassis
Text: The chassis-air partition coefficient can be measured for materials in various chassis.
Ki,chassis-air is the chassis-air partition coefficient for component i in the fragrance formula
Ci, chassis is the concentration of component i in the product formula chassis in molarity, M
Ci, air is the concentration of component i in the headspace air in equilibrium with the formula chassis in molarity, M
For the “Example Accord” in the BC-162 shampoo chassis components, the log chassis-air partition coefficients are as listed in Table 11.

brain waves = assay: Contingent Negative Variant (CNV) analysis of brain waves recorded by EEG; assay type: in vivo, human; conditions: Example 9; Musk T 10% by weight in DPG
Protocol: Contingent Negative Variant (CNV) analysis was conducted on brain waves recorded from subjects using EEG (electroencephalography) in the presence of the musk fragrance compound. CNV analysis is summarized in Okazaki et al., Proceedings of the 13th International Congress of Flavours, Fragrances and Essential Oils, 15-19 Oct. 1995.

[3] = Table 4, macrocyclic musks, 12-14 female panelists age 30-45, before vs immediately after stress test
[4] = Table 5, non-macrocyclic musks, methods as Example 6

SMILES | Salivary Amylase Data (change before vs after stress test) (salivary alpha-amylase) | Cortisol Data (change before vs after stress test) (salivary cortisol) | Percent change in salivary alpha-amylase (salivary alpha-amylase; [3]) [%] | logK, APDO Soft Solid (log chassis-air partition coefficient) [1] | logK, BC162 (log chassis-air partition coefficient) [2] | also measured
CC(=O)C(C)CC[C@H]1CCC(C)C1(C)C (stereo partly drawn) [3-methyl-5-((1R)-2,2,3-trimethylcyclopentyl)pentan-2-one] | −6.1% | −16.5% |  |  |  | 
O=C1CCCC=CCCCCCCCCCC1 [Ambretone ®, 5-Cyclohexadecen-1-one] |  |  | 36.9 |  |  | 
O=C1CCCCC=CCCCCCCCCCO1 [Ambrettolide, 17-oxacycloheptadec-6-en-1-one] | +13.16% | −11.25% | 13.1 |  |  | 
O=C1CCCCCCCCCCCCCCO1 [EXALTOLIDE, 16-oxacyclohexadecan-1-one] |  |  |  | 6.729 | 5.356 | 
O=C1CCCCCCCCC/C=C/CCCO1 [Habanolide, (12E)-1-oxacyclohexadec-12-en-2-one] | +4.67% | −20.6% | 4.7 | 6.693 | 5.505 | 
CC1=CCC(C/C=C(\C)CO)C1(C)C (stereo not shown) [Hindinol, (E)-2-methyl-4-(2,2,3-trimethyl-1-cyclopent-3-enyl)but-2-en-1-ol] | +82.3% | −25.0% |  |  |  | Percent change in salivary alpha-amylase (salivary alpha-amylase; [4]): 82.3%
CC1CCCCCCCCCCCCC(=O)C1 [L-Muscone] | +14.5% | +25.6% |  |  |  | 
O=C1CCCCCCCCCOCCCCCO1 [MUSK RI, 11-Oxahexadecan-16-olide] |  |  |  | 6.970 | 5.780 | 
O=C1CCCCCCCCCCCC(=O)OCCO1 [Musk T ®, ethylene brassylate] |  |  | 47.1 | 7.306 | 6.345 | Pre vs. Post salivary alpha-amylase level, increase in response to stress test (salivary alpha-amylase; Example 8, FIG. 3, Musk T 2.5% by weight in fragrance (floral fragrance/Musk T 75/25 admixture, 10% in DPG), DPG alone 120%): 38%; Pre vs. Post salivary alpha-amylase level, increase in response to stress test (salivary alpha-amylase; Example 9, FIG. 5, Musk T 10% by weight in DPG, DPG alone 161%): 47%; Pre vs. Post salivary cortisol level, decrease in response to stress test (salivary cortisol; Example 8, FIG. 4, Musk T 2.5% by weight in fragrance (floral fragrance/Musk T 75/25 admixture, 10% in DPG), DPG alone increased 24%): 8%; Pre vs. Post salivary cortisol level, increase in response to stress test (salivary cortisol; Example 9, FIG. 6, Musk T 10% by weight in DPG, DPG alone 41%): 10%; increase in the level of relaxation, CNV analysis of brain waves (brain waves): 32.5%
CC(=O)CCc1ccc(O)cc1 [PARA HYDROXY PHENYL BUTANONE] |  |  |  | 6.135 | 7.809 | 
CC(=O)c1cc2c(cc1C)C(C)(C)C(C)C2(C)C (stereo not shown) [Phantolide, 1-(1,1,2,3,3,6-hexamethyl-2H-inden-5-yl)ethanone] | −19.2% | −12.3% |  |  |  | 
CC(=O)OC(C)C1CCCC(C)(C)C1 (stereo not shown) [Rosamusk, 1-(3,3-dimethylcyclohexyl)ethyl acetate] | −15.2% | +6.68% |  |  |  | Pre vs. Post salivary alpha-amylase level, decrease in response to stress test (salivary alpha-amylase; Example 10, FIG. 7, Rosamusk 10% by weight in DPG, DPG alone increased 33%): 15%; Pre vs. Post salivary cortisol level, increase in response to stress test (salivary cortisol; Example 10, FIG. 8, Rosamusk 10% by weight in DPG, DPG alone 25%): 7%
CCOC(=O)[C@@H]1[C@@H](C)CCCC1(C)C [ethyl (1R,6S)-2,2,6-trimethylcyclohexane-1-carboxylate] |  |  |  |  |  | Percent change in salivary alpha-amylase (salivary alpha-amylase; [4]): 70.7%

Source: patent US20200332222A1, “MUSK COMPOSITIONS AND METHODS OF USE THEREOF” (TAKASAGO INTERNATIONAL CORPORATION (USA), priority 2015, published 2020)
